Data: PubChem BioAssay (NCI)
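In this assay, cells in 96-well plates receive the compound at five concentrations for 48 hours. Endpoints are linearly interpolated between the surrounding concentrations. At the GI50, growth is halved. Definition used: TGI = concentration required for complete inhibition of growth.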

How the values were obtained:
Test in all cases: NCI anticancer screen, dose series, 48 h
MOLT-4 leukemia = system: MOLT-4 leukemia
U251 CNS = system: U251 CNS
SK-MEL-5 melanoma = system: SK-MEL-5 melanoma
MALME-3M melanoma = system: MALME-3M melanoma
LOX IMVI melanoma = system: LOX IMVI melanoma
K-562 leukemia = system: K-562 leukemia
MCF7 breast = system: MCF7 breast
NCI-H226 lung = system: NCI-H226 lung
MDA-MB-435 = system: MDA-MB-435
OVCAR-4 ovarian = system: OVCAR-4 ovarian
786-0 renal = system: 786-0 renal
SNB-19 CNS = system: SNB-19 CNS
SN12C renal = system: SN12C renal
IGROV1 ovarian = system: IGROV1 ovarian
A549 NSCLC = system: A549 NSCLC
UACC-257 melanoma = system: UACC-257 melanoma
HOP-62 NSCLC = system: HOP-62 NSCLC
HCT-116 colon = system: HCT-116 colon
CAKI-1 renal = system: CAKI-1 renal
SK-MEL-28 melanoma = system: SK-MEL-28 melanoma
SK-MEL-2 melanoma = system: SK-MEL-2 melanoma
T-47D breast = system: T-47D breast
UO-31 renal = system: UO-31 renal
DU-145 prostate = system: DU-145 prostate
SK-OV-3 ovarian = system: SK-OV-3 ovarian
SF-295 CNS = system: SF-295 CNS
NCI/ADR-RES ovarian = system: NCI/ADR-RES ovarian
SNB-75 CNS = system: SNB-75 CNS
SR leukemia = system: SR leukemia
M14 melanoma = system: M14 melanoma
HOP-92 NSCLC = system: HOP-92 NSCLC
NCI-H460 lung = system: NCI-H460 lung
HT29 colon = system: HT29 colon
UACC-62 melanoma = system: UACC-62 melanoma
HCC-2998 colon = system: HCC-2998 colon
OVCAR-3 ovarian = system: OVCAR-3 ovarian
RPMI-8226 leukemia = system: RPMI-8226 leukemia
A498 renal = system: A498 renal
HS 578T breast = system: HS 578T breast
ACHN renal = system: ACHN renal
CCRF-CEM leukemia = system: CCRF-CEM leukemia
NCI-H23 lung = system: NCI-H23 lung
HL-60(TB) leukemia = system: HL-60(TB) leukemia
EKVX NSCLC = system: EKVX NSCLC
SF-539 CNS = system: SF-539 CNS
MDA-MB-231 breast = system: MDA-MB-231 breast
TK-10 renal = system: TK-10 renal
NCI-H522 lung = system: NCI-H522 lung
SW-620 colon = system: SW-620 colon
PC-3 prostate = system: PC-3 prostate
RXF 393 renal = system: RXF 393 renal
COLO 205 colon = system: COLO 205 colon
OVCAR-8 ovarian = system: OVCAR-8 ovarian
BT-549 breast = system: BT-549 breast
HCT-15 colon = system: HCT-15 colon
SF-268 CNS = system: SF-268 CNS
OVCAR-5 ovarian = system: OVCAR-5 ovarian
KM12 colon = system: KM12 colon

CC(=O)N1CCC(Nc2cc(C(=O)NC[C@H](O)CN3CCc4ccccc4C3)ncn2)CC1 showed a GI50 (MOLT-4 leukemia) of over 100 µM, a TGI (MOLT-4 leukemia) of over 100 µM and a GI50 (U251 CNS) of over 100 µM. For the same molecule, the TGI (U251 CNS) was over 100 µM, the GI50 (SK-MEL-5 melanoma) was over 100 µM and the TGI (SK-MEL-5 melanoma) was over 100 µM. The GI50 (MALME-3M melanoma) was over 100 µM, the TGI (MALME-3M melanoma) was over 100 µM and the GI50 (LOX IMVI melanoma) was over 100 µM. For the same molecule, the TGI (LOX IMVI melanoma) was over 100 µM, the GI50 (K-562 leukemia) was over 100 µM and the TGI (K-562 leukemia) was over 100 µM. The GI50 (MCF7 breast) was over 100 µM, the TGI (MCF7 breast) was over 100 µM and the GI50 (NCI-H226 lung) was over 100 µM. It also gave a TGI (NCI-H226 lung) of over 100 µM, a GI50 (MDA-MB-435) of over 100 µM and a TGI (MDA-MB-435) of over 100 µM. For the same molecule, the GI50 (OVCAR-4 ovarian) was over 100 µM, the TGI (OVCAR-4 ovarian) was over 100 µM and the GI50 (786-0 renal) was over 100 µM. For the same molecule, the TGI (786-0 renal) was over 100 µM, the GI50 (SNB-19 CNS) was over 100 µM and the TGI (SNB-19 CNS) was over 100 µM. For the same molecule, the GI50 (SN12C renal) was over 100 µM, the TGI (SN12C renal) was over 100 µM and the GI50 (IGROV1 ovarian) was over 100 µM. The TGI (IGROV1 ovarian) was over 100 µM, the GI50 (A549 NSCLC) was over 100 µM and the TGI (A549 NSCLC) was over 100 µM. It also gave a GI50 (UACC-257 melanoma) of over 100 µM, a TGI (UACC-257 melanoma) of over 100 µM and a GI50 (HOP-62 NSCLC) of over 100 µM. It also gave a TGI (HOP-62 NSCLC) of over 100 µM, a GI50 (HCT-116 colon) of over 100 µM and a TGI (HCT-116 colon) of over 100 µM. The GI50 (CAKI-1 renal) was over 100 µM, the TGI (CAKI-1 renal) was over 100 µM and the GI50 (SK-MEL-28 melanoma) was over 100 µM. It also gave a TGI (SK-MEL-28 melanoma) of over 100 µM, a GI50 (SK-MEL-2 melanoma) of over 100 µM and a TGI (SK-MEL-2 melanoma) of over 100 µM. For the same molecule, the GI50 (T-47D breast) was over 100 µM, the TGI (T-47D breast) was over 100 µM and the GI50 (UO-31 renal) was over 100 µM. The TGI (UO-31 renal) was over 100 µM, the GI50 (DU-145 prostate) was over 100 µM and the TGI (DU-145 prostate) was over 100 µM. For the same molecule, the GI50 (SK-OV-3 ovarian) was over 100 µM, the TGI (SK-OV-3 ovarian) was over 100 µM and the GI50 (SF-295 CNS) was over 100 µM. It also gave a TGI (SF-295 CNS) of over 100 µM, a GI50 (NCI/ADR-RES ovarian) of over 100 µM and a TGI (NCI/ADR-RES ovarian) of over 100 µM. The GI50 (SNB-75 CNS) was over 100 µM, the TGI (SNB-75 CNS) was over 100 µM and the GI50 (SR leukemia) was over 100 µM. The TGI (SR leukemia) was over 100 µM, the GI50 (M14 melanoma) was over 100 µM and the TGI (M14 melanoma) was over 100 µM. The GI50 (HOP-92 NSCLC) was 91.9 µM, the TGI (HOP-92 NSCLC) was over 100 µM and the GI50 (NCI-H460 lung) was over 100 µM. For the same molecule, the TGI (NCI-H460 lung) was over 100 µM, the GI50 (HT29 colon) was over 100 µM and the TGI (HT29 colon) was over 100 µM. It also gave a GI50 (UACC-62 melanoma) of over 100 µM, a TGI (UACC-62 melanoma) of over 100 µM and a GI50 (HCC-2998 colon) of over 100 µM. The TGI (HCC-2998 colon) was over 100 µM, the GI50 (OVCAR-3 ovarian) was over 100 µM and the TGI (OVCAR-3 ovarian) was over 100 µM. It also gave a GI50 (RPMI-8226 leukemia) of over 100 µM, a TGI (RPMI-8226 leukemia) of over 100 µM and a GI50 (A498 renal) of over 100 µM. The TGI (A498 renal) was over 100 µM, the GI50 (HS 578T breast) was over 100 µM and the TGI (HS 578T breast) was over 100 µM. It also gave a GI50 (ACHN renal) of over 100 µM, a TGI (ACHN renal) of over 100 µM and a GI50 (CCRF-CEM leukemia) of over 100 µM. It also gave a TGI (CCRF-CEM leukemia) of over 100 µM, a GI50 (NCI-H23 lung) of over 100 µM and a TGI (NCI-H23 lung) of over 100 µM. The GI50 (HL-60(TB) leukemia) was over 100 µM, the TGI (HL-60(TB) leukemia) was over 100 µM and the GI50 (EKVX NSCLC) was over 100 µM. The TGI (EKVX NSCLC) was over 100 µM, the GI50 (SF-539 CNS) was over 100 µM and the TGI (SF-539 CNS) was over 100 µM. For the same molecule, the GI50 (MDA-MB-231 breast) was over 100 µM, the TGI (MDA-MB-231 breast) was over 100 µM and the GI50 (TK-10 renal) was over 100 µM. The TGI (TK-10 renal) was over 100 µM, the GI50 (NCI-H522 lung) was over 100 µM and the TGI (NCI-H522 lung) was over 100 µM. For the same molecule, the GI50 (SW-620 colon) was over 100 µM, the TGI (SW-620 colon) was over 100 µM and the GI50 (PC-3 prostate) was over 100 µM. The TGI (PC-3 prostate) was over 100 µM, the GI50 (RXF 393 renal) was over 100 µM and the TGI (RXF 393 renal) was over 100 µM. The GI50 (COLO 205 colon) was over 100 µM, the TGI (COLO 205 colon) was over 100 µM and the GI50 (OVCAR-8 ovarian) was over 100 µM. The TGI (OVCAR-8 ovarian) was over 100 µM, the GI50 (BT-549 breast) was over 100 µM and the TGI (BT-549 breast) was over 100 µM. For the same molecule, the GI50 (HCT-15 colon) was over 100 µM, the TGI (HCT-15 colon) was over 100 µM and the GI50 (SF-268 CNS) was over 100 µM. For the same molecule, the TGI (SF-268 CNS) was over 100 µM, the GI50 (OVCAR-5 ovarian) was over 100 µM and the TGI (OVCAR-5 ovarian) was over 100 µM. It also gave a GI50 (KM12 colon) of over 100 µM and a TGI (KM12 colon) of over 100 µM.
